Data from US11911386B2, “Methods of treating B-cell proliferative disorder” (BeiGene Switzerland GmbH, priority 2022, dated 2024).
Like-named read-outs stand apart in the source and are kept apart here.

Legend:
[1] = Phase 1 DDI study: treatment-emergent adverse events; type: in vivo, human
Experimental: Safety was assessed by monitoring and recording of adverse events (AEs), serious adverse events (SAEs), clinical laboratory tests, physical examinations, and vital signs. […] A TEAE was defined as an AE that started during or after the first dose or started before the first dose and increased in severity after the first dose. AEs were classified based on MedDRA Version 24.0.
Safety and tolerability were assessed, when applicable, by incidence, severity, change from baseline values, and abnormal values for all relevant parameters such as AEs, laboratory parameters, vital signs, and physical examination.

[2] = any grade, listed as Zanubrutinib
[3] = grade ≥3, listed as Zanubrutinib
[4] = leading to treatment discontinuation

C=CC(=O)N1CCC([C@@H]2CCNc3c(C(N)=O)c(-c4ccc(Oc5ccccc5)cc4)nn32)CC1 [zanubrutinib, (S)-7-(1-acryloylpiperidin-4-yl)-2-(4-phenoxyphenyl)-4,5,6,7-tetrahydropyrazolo[1,5-a]pyrimidine-3-carboxamide]
Treatment discontinuation due to adverse events (ITT): 16.2% | Anemia AESI (any grade): 50 (15.4) n (%) | Anemia TEAE (any grade): 49 (15.1) n (%) | Arthralgia TEAE (any grade): 47 (14.5) n (%) | Atrial fibrillation TEAE (any grade): 15 (4.6) n (%) | Atrial fibrillation and flutter AESI (any grade): 5.2 n (%) | COVID-19 TEAE (any grade): 23.1 n (%) | Contusion TEAE (any grade): 44 (13.6) n (%) | Cough TEAE (any grade): 38 (11.7) n (%) | Diarrhea TEAE (any grade): 16.0 n (%) | Fatigue TEAE (any grade): 31 (9.6) n (%) | Hemorrhage AESI (any grade): 137 (42.3) n (%) | Hypertension AESI (any grade): 23.5 n (%) | Hypertension TEAE (any grade): 21.9 n (%) | Infections AESI (any grade): 71.3 n (%) | Major hemorrhage AESI (any grade): 12 (3.7) n (%) | Muscle spasms TEAE (any grade): 10 (3.1) n (%) | Neutropenia AESI (any grade): 29.3 n (%) | Neutropenia TEAE (any grade): 22.8 n (%) | Opportunistic infection AESI (any grade): 7 (2.2%) n (%) | Pneumonia TEAE (any grade): 34 (10.5) n (%) | Pyrexia TEAE (any grade): 27 (8.3) n (%) | Rash TEAE (any grade): 33 (10.2) n (%) | Secondary primary malignancies AESI (any grade): 40 (12.3) n (%) | Skin cancers AESI (any grade): 21 (6.5) n (%) | Thrombocytopenia AESI (any grade): 42 (13.0) n (%) | Tumor lysis syndrome AESI (any grade): 1 (0.3) n (%) | Upper respiratory tract infection TEAE (any grade): 21.0 n (%) | ≥1 AESI (any grade): 294 (90.7) n (%) | ≥1 TEAE (any grade): 318 (98.1) n (%) | Atrial fibrillation and flutter AESI [2]: 17 (5.2) n (%) | COVID-19 TEAE [2]: 75 (23.1) n (%) | Diarrhea TEAE [2]: 52 (16.0) n (%) | Hypertension AESI [2]: 76 (23.5) n (%) | Hypertension TEAE [2]: 71 (21.9) n (%) | Infections AESI [2]: 231 (71.3) n (%) | Neutropenia AESI [2]: 95 (29.3) n (%) | Neutropenia TEAE [2]: 74 (22.8) n (%) | Opportunistic infection AESI [2]: 7 (2.2) n (%) | Upper respiratory tract infection TEAE [2]: 68 (21.0) n (%) | Acute coronary syndrome (cardiac AE): 1 (0.3) | Acute myocardial infarction (cardiac AE): 1 (0.3) | Angina pectoris (cardiac AE): 4 (1.2) | Aortic valve incompetence (cardiac AE): 0 | Aortic valve stenosis (cardiac AE): 1 (0.3) | Arrhythmia (cardiac AE): 1 (0.3) | Arrhythmia supraventricular (cardiac AE): 3 (0.9) | Arteriosclerosis coronary artery (cardiac AE): 1 (0.3) | Atrial fibrillation (cardiac AE): 15 (4.6) | Atrial flutter (cardiac AE): 2 (0.6) | Atrial tachycardia (cardiac AE): 0 | Atrioventricular block (cardiac AE): 0 | Atrioventricular block first degree (cardiac AE): 5 (1.5) | Bradyarrhythmia (cardiac AE): 1 (0.3) | Bradycardia (cardiac AE): 0 | Bundle branch block left (cardiac AE): 3 (0.9) | Bundle branch block right (cardiac AE): 2 (0.6) | Cardiac arrest (cardiac AE): 0 | Cardiac discomfort (cardiac AE): 0 | Cardiac disorder (cardiac AE): 0 | Cardiac failure (cardiac AE): 5 (1.5) | Cardiac failure acute (cardiac AE): 0 | Cardiac failure chronic (cardiac AE): 0 | Cardiac failure congestive (cardiac AE): 1 (0.3) | Congestive cardiomyopathy (cardiac AE): 0 | Coronary artery disease (cardiac AE): 2 (0.6) | Coronary artery insufficiency (cardiac AE): 1 (0.3) | Defect conduction intraventricular (cardiac AE): 1 (0.3) | Dilatation atrial (cardiac AE): 1 (0.3) | Extrasystoles (cardiac AE): 1 (0.3) | Left atrial hypertrophy (cardiac AE): 1 (0.3) | Left ventricular dysfunction (cardiac AE): 1 (0.3) | Left ventricular failure (cardiac AE): 1 (0.3) | Mitral valve incompetence (cardiac AE): 1 (0.3) | Myocardial fibrosis (cardiac AE): 1 (0.3) | Myocardial infarction (cardiac AE): 1 (0.3) | Myocardial ischemia (cardiac AE): 3 (0.9) | Palpitations (cardiac AE): 9 (2.8) | Pericardial effusion (cardiac AE): 1 (0.3) | Sinoatrial block (cardiac AE): 1 (0.3) | Sinus arrhythmia (cardiac AE): 1 (0.3) | Sinus bradycardia (cardiac AE): 5 (1.5) | Sinus node dysfunction (cardiac AE): 0 | Sinus tachycardia (cardiac AE): 4 (1.2) | Supraventricular extrasystoles (cardiac AE): 4 (1.2) | Supraventricular tachycardia (cardiac AE): 2 (0.6) | Tachycardia (cardiac AE): 1 (0.3) | Ventricular arrhythmia (cardiac AE): 2 (0.6) | Ventricular extrasystoles (cardiac AE): 3 (0.9) | Ventricular fibrillation (cardiac AE): 0 | Ventricular hypokinesia (cardiac AE): 1 (0.3) | Anemia AESI (grade ≥3): 7 (2.2) n (%) | Atrial fibrillation and flutter AESI (grade ≥3): 2.5 n (%) | Hemorrhage AESI (grade ≥3): 11 (3.4) n (%) | Hypertension AESI (grade ≥3): 15.1 n (%) | Infections AESI (grade ≥3): 26.5 n (%) | Major hemorrhage AESI (grade ≥3): 11 (3.4) n (%) | Neutropenia AESI (grade ≥3): 68 (21.0) n (%) | Opportunistic infection AESI (grade ≥3): 5 (1.5) n (%) | Secondary primary malignancies AESI (grade ≥3): 22 (6.8) n (%) | Skin cancers AESI (grade ≥3): 7 (2.2) n (%) | Thrombocytopenia AESI (grade ≥3): 11 (3.4) n (%) | Tumor lysis syndrome AESI (grade ≥3): 1 (0.3) n (%) | ≥1 AESI (grade ≥3): 186 (57.4) n (%) | Atrial fibrillation and flutter AESI [3]: 8 (2.5) n (%) | Hypertension AESI [3]: 49 (15.1) n (%) | Infections AESI [3]: 86 (26.5) n (%) | Anemia (grade ≥3 TEAE): 7 (2.2) | Atrial fibrillation (grade ≥3 TEAE): 6 (1.9) | Blood pressure increased (grade ≥3 TEAE): 4 (1.2) | COVID-19 (grade ≥3 TEAE): 22 (6.8) | COVID-19 pneumonia (grade ≥3 TEAE): 23 (7.1) | Neutrophil count decreased (grade ≥3 TEAE): 17 (5.2) | Pneumonia (grade ≥3 TEAE): 19 (5.9) | Syncope (grade ≥3 TEAE): 9 (2.8) | Thrombocytopenia (grade ≥3 TEAE): 9 (2.8) | AEs leading to dose reduction (human, in vivo): 40 (12.3) | Bronchopulmonary aspergillosis (human, in vivo): 2 (0.6) | COVID-19 TEAE Grade 3 or higher (human, in vivo): 40 (12.3) n (%) | Fungal abscess central nervous system (human, in vivo): 1 (0.3) | Herpes ophthalmic (human, in vivo): 0 | Ophthalmic herpes zoster (human, in vivo): 0 | Osteomyelitis fungal (human, in vivo): 0 | Pneumonia fungal (human, in vivo): 2 (0.6) | Pneumonia legionella (human, in vivo): 0 | Pulmonary tuberculosis (human, in vivo): 0 | AEs leading to dose interruption (in vivo): 162 (50.0) | AEs leading to treatment discontinuation (in vivo): 50 (15.4) | Deaths due to cardiac events (in vivo): no patient receiving zanubrutinib died due to a cardiac disorder AE | Grade ≥3 TEAE (in vivo): 218 (67.3) | Serious AEs (in vivo): 136 (42.0) | Atrial fibrillation [4]: 0 | Cardiac arrest [4]: 0 | Cardiac failure [4]: 0 | Cardiac failure acute [4]: 0 | Congestive cardiomyopathy [4]: 0 | Myocardial infarction [4]: 0 | Palpitations [4]: 0 | Ventricular extrasystoles [4]: 1 (0.3) | Ventricular fibrillation [4]: 0 | Pneumocystis jirovecii pneumonia (opportunistic infection AESI): 1 (0.3) | Pneumonia cryptococcal (opportunistic infection AESI): 1 (0.3) | General disorders and administration site conditions TEAE ([1]; N = 13): 1 (7.7) n (%) | Overall TEAEs ([1]; N = 13): 1 (7.7) n (%) | Vessel puncture site hematoma TEAE ([1]; N = 13): 1 (7.7) n (%) | Tolerability ([1]; single 320 mg dose alone or with 300 mg rifabutin, healthy volunteers): well tolerated
